Source: patent US4623662A, “Antiatherosclerotic ureas and thioureas” (American Cyanamid Company, priority 1985, dated 1986)
Like-named read-outs stand apart in the source and are kept apart here.

What was measured:
cholesterol absorption = assay: Inhibition of cholesterol absorption in rats fed 1% cholesterol:0.5% cholic acid diet; assay type: in vivo, male Sprague-Dawley rats; details: po, 336 h, rat, 2 weeks; for response vs control in vivo at 0.01 %: dose .01% of the diet; for response vs control in vivo at 0.003 %: dose .003% of the diet; for response vs control in vivo at 0.03 %: dose .03% of the diet
Procedure, shortened: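 Compound was mixed into the diet (0.001-0.03%) of male Sprague-Dawley rats, 150-170 g, on a 1% cholesterol/0.5% cholic acid regimen for 2 weeks. At sacrifice, serum cholesterol (enzymatic) and liver neutral-sterol cholesterol were measured; values given as percent of compound-free control rats.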

[1] = molecular target: T1, fatty acyl CoA:cholesterol acyl transferase (ACAT) (Rattus norvegicus, UniProt Q7TQM4); assay: Inhibition of ACAT from microsomes isolated from rat intestinal mucosal cells; assay type: biochemical
T1 construct: the enzyme was derived from microsomes isolated from rat intestinal mucosal cells; from tissue; host or cells: rat intestinal mucosal cells, microsomes
T1 sequence (Q7TQM4 1-524): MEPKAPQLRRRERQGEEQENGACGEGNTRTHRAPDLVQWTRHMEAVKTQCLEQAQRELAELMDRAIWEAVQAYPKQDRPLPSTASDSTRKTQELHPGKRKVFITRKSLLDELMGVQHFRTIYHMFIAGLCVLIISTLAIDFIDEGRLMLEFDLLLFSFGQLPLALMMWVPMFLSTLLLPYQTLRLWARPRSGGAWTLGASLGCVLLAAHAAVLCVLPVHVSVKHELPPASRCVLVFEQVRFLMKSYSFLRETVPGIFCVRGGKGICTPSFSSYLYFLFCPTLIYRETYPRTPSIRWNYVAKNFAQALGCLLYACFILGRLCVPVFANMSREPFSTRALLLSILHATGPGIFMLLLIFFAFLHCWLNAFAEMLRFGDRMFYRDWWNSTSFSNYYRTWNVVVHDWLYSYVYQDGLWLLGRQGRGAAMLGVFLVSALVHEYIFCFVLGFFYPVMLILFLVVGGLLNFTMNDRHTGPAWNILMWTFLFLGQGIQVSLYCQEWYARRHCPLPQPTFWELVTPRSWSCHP
Method: The compounds were tested for their ability to inhibit ACAT according to the following procedure: rat adrenals were homogenized in 0.2M monobasic potassium phosphate buffer, pH 7.4, and centrifuged at 1,000 times gravity for 15 minutes at 5° C. The supernatant, containing the microsomal fraction, served as the source of the cholesterol-esterifying enzyme, fatty acyl CoA:cholesterol acyl transferase (ACAT). A mixture comprising 50 parts of adrenal supernatant, 10 parts of bovine serum albumin (50 mg/ml), 3 parts of test compound (final concentration 5.2 μg/ml), and 500 parts of buffer was preincubated at 37° C. for 10 minutes. After treatment with 20 parts of oleoyl CoA (^14 C-0.4 μCi), the mixture was incubated at 37° C. for 10 minutes. A control mixture, omitting the test compound, was prepared and treated in the same manner. The lipids from the incubation mixture was extracted into an organic solvent and separated by thin-layer chromatography. The cholesteryl ester fraction was counted in a scintillation counter. This procedure is a modification of that described by Hashimoto, et al., Life Scie., 12 (Part II), 1-12 (1973).
The compounds of this invention were tested in vitro at several concentrations for their ability to inhibit the enzyme fatty acyl CoA:cholesterol acyl transferase (ACAT) using the hereinabove described procedure except that the enzyme was derived from microsomes isolated from rat intestinal mucosal cells rather than rat adrenal cells. The results of this test on representative compounds of this invention are given in Table III in terms of IC50 (μM), that concentration which produced 50% inhibition of the ACAT enzyme.

[2] = molecular target: T2, fatty acyl CoA: cholesterol acyl transferase (ACAT) (Rattus norvegicus, UniProt O70536); assay: Inhibition of fatty acyl CoA:cholesterol acyl transferase (ACAT), rat adrenal enzyme; assay type: biochemical
T2 construct: The supernatant, containing the microsomal fraction, served as the source of the cholesterol-esterifying enzyme; from tissue; host or cells: rat adrenals, supernatant of 1,000 x g centrifugation containing the microsomal fraction
T2 sequence (O70536 1-545): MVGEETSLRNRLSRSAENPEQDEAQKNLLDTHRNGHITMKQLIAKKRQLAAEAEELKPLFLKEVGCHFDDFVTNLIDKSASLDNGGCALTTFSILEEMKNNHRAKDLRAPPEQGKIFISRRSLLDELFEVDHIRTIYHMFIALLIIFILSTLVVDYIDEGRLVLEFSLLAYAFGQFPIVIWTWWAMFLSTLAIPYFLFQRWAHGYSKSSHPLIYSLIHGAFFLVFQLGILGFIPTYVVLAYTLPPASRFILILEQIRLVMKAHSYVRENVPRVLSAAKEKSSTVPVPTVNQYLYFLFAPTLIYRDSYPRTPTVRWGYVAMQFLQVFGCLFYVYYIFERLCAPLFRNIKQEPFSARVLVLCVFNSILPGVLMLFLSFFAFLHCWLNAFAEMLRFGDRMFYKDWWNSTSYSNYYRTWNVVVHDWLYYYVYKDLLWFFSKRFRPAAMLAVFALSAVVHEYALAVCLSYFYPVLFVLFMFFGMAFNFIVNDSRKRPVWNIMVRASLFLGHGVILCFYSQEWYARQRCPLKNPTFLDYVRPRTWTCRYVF
Procedure, shortened: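 Read-out was scintillation counting of [14C]cholesteryl ester, isolated by TLC, after 10 min at 37° C with [14C]oleoyl CoA. Beforehand, compound (final 5.2 μg/ml in single-concentration tests) was preincubated 10 min at 37° C with BSA and rat adrenal microsomal supernatant in pH 7.4 phosphate. Results given as percent inhibition versus control or IC50 over several concentrations.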

[3] = read-out: LS (liver sterol), percentage of control values
[4] = read-out: SS (serum sterol), percentage of control values

IC50 [1] [nM]	SMILES	response vs control in vivo at 0.03 % (cholesterol absorption; [3]) [%]	response vs control in vivo at 0.03 % (cholesterol absorption; [4]) [%]	inhibition at 5.2 µg/mL [2] [%]	also measured
20	CCCCCCCN(Cc1ccc(CC(C)C(C)CC)cc1)C(=O)Nc1c(C)cc(Cl)cc1C (stereo not drawn) [1-(n-Heptyl)-1-[4-(2,3-dimethylpentyl)benzyl]-3-(4-chloro-2,6-dimethylphenyl)urea]	–	–	–	response vs control in vivo at 0.01 % (cholesterol absorption; [3]): 40%; response vs control in vivo at 0.01 % (cholesterol absorption; [4]): 43%
220	CCCCCCCN(Cc1ccc(CC[S+]([O-])C(C)C)cc1)C(=O)Nc1ccc(F)cc1F (stereo not drawn) [1-(n-Heptyl)-1-[4-(2-isopropylsulfinylethyl)benzyl]-3-(2,4-difluorophenyl)urea]	–	–	–	response vs control in vivo at 0.003 % (cholesterol absorption; [3]): 84%
210	CCCCCCCN(Cc1ccc(CCSC(C)C)cc1)C(=O)Nc1ccc(F)cc1F [1-(n-Heptyl)-1-[4-(2-isopropylthioethyl)benzyl]-3-(2,4-difluorophenyl)urea]	–	–	–	response vs control in vivo at 0.003 % (cholesterol absorption; [3]): 72%
1020	CCCCCCCN(Cc1ccc(CCCC(=O)O)cc1)C(=O)Nc1c(C)cc(Cl)cc1C [1-(n-Heptyl)-1-[4-(3-carboxypropyl)benzyl]-3-(4-chloro-2,6-dimethylphenyl)urea]	–	–	–	IC50 ([2]; rat adrenal ACAT, several concentrations): 7220 nM
140	CCCCCCCN(Cc1ccc(CC2CCCC2)cc1)C(=O)Nc1ccc(F)cc1F [1-(n-Heptyl)-1-[4-(4-cyclopentylmethyl)benzyl]-3-(2,4-difluorophenyl)urea]	–	–	–	response vs control in vivo at 0.01 % (cholesterol absorption; [3]): 80%
3270	CCCCCCCN(Cc1ccc(CCCCSC(C)C)cc1)C(=O)Nc1ccc(F)cc1F [1-(n-Heptyl)-1-[4-(4-isopropylthiobutyl)benzyl]-3-(2,4-difluorophenyl)urea]	–	–	–	–
1750	CCCCCCCN(Cc1ccc(CC(=O)OC)cc1)C(=O)Nc1ccc(F)cc1F [1-(n-Heptyl)-1-[4-(carbomethoxymethyl)benzyl]-3-(2,4-difluorophenyl)urea]	–	–	–	–
24000	CCCCCCCN(Cc1ccc(CC(=O)O)cc1)C(=O)Nc1ccc(F)cc1F [1-(n-Heptyl)-1-[4-(carboxymethyl)benzyl]-3-(2,4-difluorophenyl)urea]	–	–	–	–
200	CCCCCCCN(Cc1ccc(CO)cc1)C(=O)Nc1ccc(F)cc1F [1-(n-Heptyl)-1-[4-(hydroxymethyl)benzyl]-3-(2,4-difluorophenyl)urea]	–	–	–	response vs control in vivo at 0.003 % (cholesterol absorption; [3]): 81%
180	CCCCCCCN(Cc1ccc(COCCC(C)C)cc1)C(=O)Nc1c(F)cc(F)cc1F [1-(n-Heptyl)-1-[4-(isopentyloxymethyl)benzyl]-3-(2,4,6-trifluorophenyl)urea]	–	–	–	response vs control in vivo at 0.001 % (cholesterol absorption; dose .001% of the diet, read-out: LS (liver sterol), percentage of control values): 75%
330	CCCCCCCN(Cc1ccc(COCCC(C)C)cc1)C(=O)Nc1ccc(F)cc1F [1-(n-Heptyl)-1-[4-(isopentyloxymethyl)benzyl]-3-(2,4-difluorophenyl)urea]	–	–	–	response vs control in vivo at 0.01 % (cholesterol absorption; [3]): 60%
130	CCCCCCCN(Cc1ccc(COCCC(C)C)cc1)C(=O)Nc1c(C)cc(Cl)cc1C [1-(n-Heptyl)-1-[4-(isopentyloxymethyl)benzyl]-3-(4-chloro-2,6-dimethylphenyl)urea]	–	–	–	response vs control in vivo at 0.003 % (cholesterol absorption; [3]): 47%
–	CCCCc1ccc(CN(CCOCCO)C(=O)Nc2cc(C)c(C)cc2C)cc1 [1-[(4-Butylphenyl)methyl]-1-[2-(2-hydroxyethoxy)ethyl]-3-(2,4,5-trimethylphenyl)urea]	76	100	–	inhibition at 5.2 µg/mL ([2]; rat adrenal ACAT, final concentration 5.2 μg/ml, read-out: % Inhibition): 85.9%
–	CCCCc1ccc(CN(CCCCC[Si](C)(C)C)C(=O)Nc2ccc(F)cc2F)cc1 [1-[(4-Butylphenyl)methyl]-3-(2,4-difluorophenyl)-1-[5-(trimethylsilyl)pentyl]urea]	57	62	90	–
–	CCCCc1ccc(CN(CCCCCCC#N)C(=O)Nc2ccc(Cl)cc2C)cc1 [1-[(4-Butylphenyl)methyl]-3-(4-chloro-2-methylphenyl)-1-(6-cyanohexyl)urea]	50	48	90	–
–	CCCCc1ccc(CN(CCCCCCO)C(=O)Nc2ccc(Cl)cc2C)cc1 [1-[(4-Butylphenyl)methyl]-3-(4-chloro-2-methylphenyl)-1-(6-hydroxyhexyl)urea]	53	6	90	–
–	CCCCc1ccc(CN(CCCCC[Si](C)(C)C)C(=O)Nc2ccc(Cl)cc2C)cc1 [1-[(4-Butylphenyl)methyl]-3-(4-chloro-2-methylphenyl)-1-[5-(trimethylsilyl)pentyl]urea]	62	50	90	–
–	CC(C)(C)CCN(Cc1cccs1)C(=O)Nc1ccc(F)cc1F [3-(2,4-Difluorophenyl)-1-(3,3-dimethylbutyl)-1-(2-thienylmethyl)urea]	73	66	90	–
–	Cc1cc(Cl)ccc1NC(=O)N(CCC(C)(C)C)Cc1cccs1 [3-(4-Chloro-2-methylphenyl)-1-(3,3-dimethylbutyl)-1-(2-thienylmethyl)urea]	64	62	90	–

SMILES	IC50 [1] [nM]	response vs control in vivo at 0.03 % (cholesterol absorption; [3]) [%]	response vs control in vivo at 0.03 % (cholesterol absorption; [4]) [%]	inhibition at 5.2 µg/mL [2] [%]	also measured
CCCCCCCN(Cc1ccc(COC(C)=O)cc1)C(=O)Nc1ccc(F)cc1F [1-(n-Heptyl)-1-[4-(acetoxymethyl)benzyl]-3-(2,4-difluorophenyl)urea]	120	–	–	–	response vs control in vivo at 0.01 % (cholesterol absorption; [3]): 70%
